According to US20250222169A1, “PHOTOINTIATOR, BIOINK INCLUDING THE SAME, AND METHODE OF MANUFACTURING HYDROGEL” (PUSAN NATIONAL UNIVERSITY INDUSTRY-UNIVERSITY COOPERATION …, priority 2024, published 2025):

How the values were obtained:
[1] = in water at about 25° C.
[2] = tested on: Murine NIH-3T3 fibroblasts; experiment: Cytotoxicity of the photoinitiator (cell viability of fibroblasts); type: cell-based; conditions: concentration of about 0.2% (w/v), about 24 hours
Method: Murine NIH-3T3 fibroblasts purchased from ATCC (Manassas, VA, USA) were cultured in a cell culture dish in a size of about 100 mm along with DMEM supplemented with about 10% FBS and penicillin-streptomycin (about 100 UI/ml). The cultured cells were kept at about 37° C. in a sterile culture machine (Labogene, Seoul, Korea) containing about 5% CO2 until reaching the confluence.
To conduct cell viability analysis, fibroblasts were seeded into 24-well-plates (2×10^4 cells/well) and cultured in a sterile culture machine at about 37° C. for about 12 hours, and then the media were removed.
In particular, by substituting with highly biocompatible Mg^2+ ions, it was identified that there was a remarkable effect on reduction in the cytotoxicity.

[3] = Molar extinction coefficient by UV-visible absorption spectra in distilled water; type: physicochemical; conditions: at about 405 nm, 10 mm quartz cuvettes
Text: FIG. 5 is a graph of a molar extinction coefficient (ε)-wavelength of Examples according to the present disclosure.

## Cc1cc(C)c(C(=O)P(=O)([O-])c2ccccc2)c(C)c1.[Li+] [LAP, Lithium phenyl-2,4,6-trimethylbenzoylphosphination]
[1]
  maximum solubility: about 159.7 mM
[2]
  cell viability: about 46%
[3]
  molar extinction coefficient: about 29 M^−1·cm^−1
